Values of other authors, collected in patent US20160303203A1, “COMPOSITIONS AND METHODS FOR THE TREATMENT OF WOUNDS” (priority 2013, published 2016).

System: diabetic ulcers
Conditions: patients with diabetic ulcers treated with phenytoin; control group 45 days

For `O=C1NC(=O)C(c2ccccc2)(c2ccccc2)N1` [phenytoin, 5.5-diphenyl-2,4-imidazolidinedione], the mean healing time is given as 21 days.
